The record followed here is ChEMBL document CHEMBL5634097, “A review: FDA-approved fluorine-containing small molecules from 2015 to 2022” (Eur J Med Chem, 2023).

Series [1] concerns the target Replicase polyprotein 1ab (Severe acute respiratory syndrome coronavirus 2) (UniProt P0DTD1). The experiment in a line: Binding affinity to SARS-Cov-2 PLpro.
For series [2] the target is unchanged. The experiment in a line: Binding affinity to SARS-Cov-2 Main protease.
Series [3] concerns the target Spike glycoprotein (Severe acute respiratory syndrome coronavirus 2) (UniProt P0DTC2). The series can be described thus: Binding affinity to SARS-Cov-2 Spike protein.
For series [4], the target named is Dual specificity mitogen-activated protein kinase kinase; MEK1/2 (Homo sapiens, UniProt P36507+Q02750). The experiment in a line: Inhibition of MEK1/2 (unknown origin). It is filed as protein assay.
The nature of series [5]: Inhibition of CGRP (unknown origin). Details: species or system Homo sapiens.
Series [6] can be described thus: Half life in rat. It is filed as ADME. The following applies: in vivo.
A short description of series [7]: Half life in dog. The series is classed as ADME, Canis lupus familiaris. The following applies: in vivo.

With `CNC(=O)c1ccc(-c2cnc3ncc(Cc4ccc5ncccc5c4)n3n2)cc1F`, the K in series [1] was -7.7 kcal/mol; in series [2] it was -9.3 kcal/mol; in series [3], -7.7 kcal/mol.

In series [4], `Cn1cnc2c(F)c(Nc3ccc(Br)cc3F)c(C(=O)NOCCO)cc21` [BINIMETINIB] returned a 50% inhibitory concentration (IC50) of 12 nM.

Regarding `CN1CCN2c3c(cccc31)[C@@H]1CN(CCCC(=O)c3ccc(F)cc3)CC[C@@H]12` [LUMATEPERONE], in series [5], the IC50 was determined as 0.14 nM. Further, the half-life in series [6] and in series [7] was not above 30 h in each case.
